Assay [1] relates to c-Myc (DNA, G4) TGAGGGTGGGTAGGGTGGGTAA
The assay can be described thus: fluorescence lifetime displacement assay (TCSPC). As to conditions: 100 mM KCl (K+), 10 mM lithium cacodylate (Li+), pH 7.3, 2 µM DAOTA-M2 displaced, 4 µM c-Myc.

Assay [2] has the same test system. The assay can be described thus: fluorescence lifetime (TCSPC). The conditions noted are these: 100 mM KCl (K+), 10 mM lithium cacodylate (Li+); pH 7.3; 2 µM DAOTA-M2, 4 µM c-Myc, 20 µM CT-DNA present; lifetime 6.1 to 11.7 ns.
For assay [3], the system named is ds26 (DNA, duplex) CAATCGGATCGAATTCGATCCGATTG
The assay can be described thus: fluorescence lifetime (TCSPC). As to conditions: 100 mM KCl (K+), 10 mM lithium cacodylate (Li+) (buffer part); Xenopus egg extract 33 µL + 12 µL buffer; 2 µM DAOTA-M2, 44 µM ds26; 21 °C; lifetime 6.1 ns.

In the case of `N=C(N)c1ccc(-c2cc3ccc(C(=N)N)cc3[nH]2)cc1`, the binding entry in assay [1] (20 µM CT-DNA present, small lifetime drop) is “no”.
`NCCOc1cc(C(=O)Nc2cc(OCCN)c3ccccc3n2)nc(C(=O)Nc2cc(OCCN)c3ccccc3n2)c1`: in assay [1] (20 µM CT-DNA present, PDS to 14.4 µM), the binding result is reported as “yes”.
`[Cu+2].[O-]c1cc(OCCN2CCCCC2)ccc1/C=N/c1ccccc1/N=C/c1ccc(OCCN2CCCCC2)cc1[O-]`: the binding entry in assay [1] is on record as “yes”.
For `[Ni+2].[O-]c1cc(OCCN2CCCCC2)ccc1/C=N/c1ccccc1/N=C/c1ccc(OCCN2CCCCC2)cc1[O-]`, in assay [1], the binding entry is listed as “yes”.
`[O-2].[O-]c1cc(OCCN2CCCCC2)ccc1/C=N/c1ccccc1/N=C/c1ccc(OCCN2CCCCC2)cc1[O-].[V+4]`: the binding entry in assay [1] is “yes”.
On to `[O-]c1cc(OCCN2CCCCC2)ccc1/C=N/c1ccccc1/N=C/c1ccc(OCCN2CCCCC2)cc1[O-].[Zn+2]`, for which, in assay [1], the binding entry is given as “weak”.
For the compound `c1cc2oc3cccc4c3[c+]3c2c(c1)n(CCN1CCOCC1)c1cccc(c13)n4CCN1CCOCC1`, the binding entry in assay [2] and in assay [3] was “yes” in each case.
